Source: PubChem BioAssay AID248 (DTP/NCI, 2004)
Where “and” joins values, the source holds several entries; their conditions need not be identical. Equal values may be shown once. Inconclusive results and toxic doses are left out. Rule as the data show it: active = T/C of 150% or more; inactive = T/C below 125%.

System: L1210 leukemia ip in BDF1 mice, survival T/C
Test: NCI In Vivo Anticancer Drug Screen. Data for tumor model L1210 Leukemia (intraperitoneal) in B6D2F1 (BDF1) mice
Conditions: endpoint: mean survival time, higher = longer survival
Summary of the method: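 Mice bearing the transplanted tumor received compound or vehicle. Survival of the treated group was divided by that of the vehicle-treated control group to give the ratio.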

[1] = dose: 100.0 mg/kg/injection, schedule: Q01DX009 (ip), vehicle: saline with Tween-80
[2] = dose: 100.0 mg/kg/injection, schedule: Q04DX003 (ip), vehicle: saline with Tween-80
[3] = dose: 200.0 mg/kg/injection, schedule: Q01DX009 (ip), vehicle: saline with Tween-80
[4] = dose: 200.0 mg/kg/injection, schedule: Q04DX003 (ip), vehicle: saline with Tween-80
[5] = dose: 100.0 mg/kg/injection, schedule: Q01DX001 (ip), vehicle: Klucel (hydroxypropylcellulose) (HPC)
[6] = dose: 200.0 mg/kg/injection, schedule: Q01DX001 (ip), vehicle: Klucel (hydroxypropylcellulose) (HPC)
[7] = dose: 400.0 mg/kg/injection, schedule: Q01DX001 (ip), vehicle: Klucel (hydroxypropylcellulose) (HPC)
[8] = dose: 100.0 mg/kg/injection, schedule: Q01DX001 (ip), vehicle: saline
[9] = dose: 400.0 mg/kg/injection, schedule: Q01DX001 (ip), vehicle: saline

Measured: T/C

O=C(O)c1ccccc1C(=O)NNC(=O)c1ccccc1C(=O)O
inactive: [1] 97 % of control | [2] 97 % of control | [3] 94 % of control | [4] 108 % of control | dose: 400.0 mg/kg/injection, schedule: Q01DX009 (ip), vehicle: saline with Tween-80 94 % of control | dose: 400.0 mg/kg/injection, schedule: Q04DX003 (ip), vehicle: saline with Tween-80 92 % of control

COc1ccc(C(=O)N/N=C/c2ccccc2Cl)cc1
inactive: dose: 100.0 mg/kg/injection, schedule: Q01DX009 (ip), vehicle: Klucel (hydroxypropylcellulose) (HPC) 106 % of control | dose: 200.0 mg/kg/injection, schedule: Q01DX009 (ip), vehicle: Klucel (hydroxypropylcellulose) (HPC) 97 % of control | dose: 400.0 mg/kg/injection, schedule: Q01DX009 (ip), vehicle: Klucel (hydroxypropylcellulose) (HPC) 102 % of control

CCCCCCCCCCCCCC(CC1CCCCC1)CC1CCCCC1
inactive: dose: 100.0 mg/kg/injection, schedule: Q01DX001 (ip), vehicle: saline with Tween-80 103 % of control | dose: 200.0 mg/kg/injection, schedule: Q01DX001 (ip), vehicle: saline with Tween-80 102 % of control | dose: 400.0 mg/kg/injection, schedule: Q01DX001 (ip), vehicle: saline with Tween-80 100 % of control

O=C1c2ccccc2CCC1(Br)C(Br)c1ccccc1 (stereo not given)
inactive: dose: 100.0 mg/kg/injection, schedule: Q04DX003 (ip), vehicle: acetone 96 % of control | dose: 200.0 mg/kg/injection, schedule: Q04DX003 (ip), vehicle: acetone 101 % of control | dose: 400.0 mg/kg/injection, schedule: Q04DX003 (ip), vehicle: acetone 92 % of control

Nc1ccc(Cc2ccc(Cl)cc2)cc1
inactive: dose: 75.0 mg/kg/injection, schedule: Q01DX001 (ip), vehicle: acetone 94 % of control | dose: 150.0 mg/kg/injection, schedule: Q01DX001 (ip), vehicle: acetone 94 % of control | dose: 300.0 mg/kg/injection, schedule: Q01DX001 (ip), vehicle: acetone 91 % of control

c1ccc2c(c1)NCCN2
inactive: dose: 12.5 mg/kg/injection, schedule: Q01DX001 (ip), vehicle: saline 97 % of control | dose: 25.0 mg/kg/injection, schedule: Q01DX001 (ip), vehicle: saline 94 % of control

CCOC(=O)NN(C(=O)OCC)c1c(N)nc(N)[nH]c1=O
inactive: [5] 92 % of control | [6] 101 % of control | [7] 92 % of control

Cc1cn(C2CCCO2)c(=O)nc1N (stereo not given)
inactive: dose: 50.0 mg/kg/injection, schedule: Q01DX001 (ip), vehicle: saline 103 % of control | [8] 97 % of control | dose: 200.0 mg/kg/injection, schedule: Q01DX001 (ip), vehicle: saline 95 % of control | [9] 101 % of control

CCCCCCCCCCCC[n+]1cccc2ccccc21
inactive: dose: 0.13 mg/kg/injection, schedule: Q01DX Z (ip), vehicle: carboxymethylcellulose (CMC) 112 % of control | dose: 0.25 mg/kg/injection, schedule: Q01DX Z (ip), vehicle: carboxymethylcellulose (CMC) 96 % of control | dose: 0.25 mg/kg/injection, schedule: Q04DX003 (ip), vehicle: saline 97 % of control | dose: 0.5 mg/kg/injection, schedule: Q01DX001 (ip), vehicle: saline 93 % of control | dose: 0.5 mg/kg/injection, schedule: Q01DX Z (ip), vehicle: carboxymethylcellulose (CMC) 98 % of control | dose: 0.5 mg/kg/injection, schedule: Q04DX003 (ip), vehicle: saline 92 % of control | dose: 0.7 mg/kg/injection, schedule: Q01DX009 (ip), vehicle: saline 92 % of control | dose: 1.0 mg/kg/injection, schedule: Q01DX001 (ip), vehicle: saline 88 % of control | dose: 1.0 mg/kg/injection, schedule: Q01DX015 (ip), vehicle: carboxymethylcellulose (CMC) 108 % of control | dose: 1.0 mg/kg/injection, schedule: Q01DX Z (ip), vehicle: carboxymethylcellulose (CMC) 98 % of control | dose: 1.0 mg/kg/injection, schedule: Q04DX003 (ip), vehicle: saline 108 % of control | dose: 1.4 mg/kg/injection, schedule: Q04DX003 (ip), vehicle: saline 94 % of control | dose: 2.0 mg/kg/injection, schedule: Q01DX015 (ip), vehicle: carboxymethylcellulose (CMC) 106 % of control

Cc1cc(C)c(C(=O)OCCN(C)C)c(C)c1
inactive: dose: 75.0 mg/kg/injection, schedule: Q01DX001 (ip), vehicle: saline 110 % of control | dose: 150.0 mg/kg/injection, schedule: Q01DX001 (ip), vehicle: saline 98 % of control

Cc1nc(N)[nH]c(=O)c1CCCNC(=O)c1ccc(C(=O)CBr)cc1
inactive: dose: 50.0 mg/kg/injection, schedule: Q01DX001 (ip), vehicle: Klucel (hydroxypropylcellulose) (HPC) 90 % of control | [6] 93 % of control

O=c1ccc(=O)n(-c2ccc(Cl)cc2)[nH]1
inactive: dose: 50.0 mg/kg/injection, schedule: Q04DX003 (ip), vehicle: saline with Tween-80 103 % of control | [2] 104 % of control | [4] 98 % of control

Fc1cccc2c1[nH]c1cc3ccncc3cc12
inactive: dose: 100.0 mg/kg/injection, schedule: Q04DX003 (ip), vehicle: Klucel (hydroxypropylcellulose) (HPC) 98 % of control | dose: 200.0 mg/kg/injection, schedule: Q04DX003 (ip), vehicle: Klucel (hydroxypropylcellulose) (HPC) 90 % of control | dose: 400.0 mg/kg/injection, schedule: Q04DX003 (ip), vehicle: Klucel (hydroxypropylcellulose) (HPC) 93 % of control

C=CCNc1ncnc2c1ncn2C1OC(CO)C(O)C1O (stereo not given)
active: dose: 112.0 mg/kg/injection, schedule: Q01DX009 (ip), vehicle: other 166 % of control
inactive: dose: 9.5 mg/kg/injection, schedule: Q01DX001 (ip), vehicle: other 100 % of control | dose: 19.0 mg/kg/injection, schedule: Q01DX001 (ip), vehicle: other 97 % of control | dose: 33.0 mg/kg/injection, schedule: Q01DX009 (ip), vehicle: other 104 % of control | dose: 38.0 mg/kg/injection, schedule: Q01DX001 (ip), vehicle: other 94 % of control

CSC(=N)c1cccc(OCCCOc2ccccc2)c1
inactive: dose: 25.0 mg/kg/injection, schedule: Q01DX009 (ip), vehicle: saline with Tween-80 94 % of control | dose: 50.0 mg/kg/injection, schedule: Q01DX009 (ip), vehicle: saline with Tween-80 90 % of control | [1] 90 % of control | [3] 88 % of control

O=[N+]([O-])c1ccccc1N=Nc1c(O)[nH]c2cccc(C(F)(F)F)c12
inactive: dose: 100.0 mg/kg/injection, schedule: Q01DX001 (ip), vehicle: acetone 97 % of control | [8] 103 % of control | dose: 200.0 mg/kg/injection, schedule: Q01DX001 (ip), vehicle: acetone 97 % of control | dose: 400.0 mg/kg/injection, schedule: Q01DX001 (ip), vehicle: acetone 97 % of control | [9] 87 % of control

COC(=O)C1C(=C(c2ccccc2)c2ccccc2)C1c1ccccc1 (stereo not given)
inactive: dose: 75.0 mg/kg/injection, schedule: Q04DX003 (ip), vehicle: Klucel (hydroxypropylcellulose) (HPC) 96 % of control | [5] 95 % of control | dose: 100.0 mg/kg/injection, schedule: Q01DX001 (ip), vehicle: steriod suspending solution 93 % of control | dose: 150.0 mg/kg/injection, schedule: Q04DX003 (ip), vehicle: Klucel (hydroxypropylcellulose) (HPC) 94 % of control | [6] 95 % of control | dose: 200.0 mg/kg/injection, schedule: Q01DX001 (ip), vehicle: steriod suspending solution 98 % of control | dose: 300.0 mg/kg/injection, schedule: Q04DX003 (ip), vehicle: Klucel (hydroxypropylcellulose) (HPC) 100 % of control | [7] 103 % of control | dose: 400.0 mg/kg/injection, schedule: Q01DX001 (ip), vehicle: steriod suspending solution 95 % of control

C=C1CC2(OC1=O)C(=O)N(C)c1ccccc12 (stereo not given)
inactive: dose: 25.0 mg/kg/injection, schedule: Q04DX002 (ip), vehicle: gum acacia 101 % of control | dose: 50.0 mg/kg/injection, schedule: Q04DX002 (ip), vehicle: gum acacia 97 % of control

O=C1OCC/C1=C\CCCCCCCCC1CO1 (stereo not given)
inactive: dose: 25.0 mg/kg/injection, schedule: Q04DX002 (ip), vehicle: saline 94 % of control | dose: 50.0 mg/kg/injection, schedule: Q04DX002 (ip), vehicle: saline 102 % of control | dose: 100.0 mg/kg/injection, schedule: Q04DX002 (ip), vehicle: saline 94 % of control and 101 % of control

ONC(=NCc1ccccc1)c1ccccc1
inactive: dose: 100.0 mg/kg/injection, schedule: Q01DX001 (ip), vehicle: carboxymethylcellulose (CMC) 97 % of control | dose: 200.0 mg/kg/injection, schedule: Q01DX001 (ip), vehicle: carboxymethylcellulose (CMC) 103 % of control
